Laboratory results taken from patent publication US20230000808A1, “COMPOSITIONS AND METHODS EXCLUDING OR WITH REDUCED GLUTAMINE FOR THE TREATMENT OF HEMOGLOBINOPATHIES AND THALASSEMIAS” (AXCELLA HEALTH INC., priority 2019, published 2023).

What was measured:
TNFα = assay: LPS-induced TNF-α secretion in primary human monocyte-derived macrophages (ELISA); format: cell-based; conditions: LPS, baseline subtracted
Protocol: (§1) Primary human PMBC derived macrophages were seeded on day 0 at 3.0×10^4 cells per well in 96-well microplates (ThermoFisher) in Dulbecco's Modified Eagle Medium (DMEM) (Gibco) supplemented with penicillin-streptomycin (Hyclone) and 10% heat inactivated fetal bovine serum (HI-FBS) (Atlanta Bio) and incubated overnight at 37° C., 5% CO2. On day 1, cells were washed once with 150 μl per well DPBS (Gibco) and treated with 75 μl of: • a. […] The same medium described above with one amino acid at various concentrations including complete dropout. […] On day 3, the supernatant was collected and immediately frozen in −80° C. freezer. Cells were washed once with 150 μl DPBS and viability was assessed using the WST-8 Cell Proliferation Cytotoxicity Assay (Dojindo). […] Protein levels in supernatant samples were analyzed by ELISA for IL-6 and TNFα using commercially available kits (R&D Systems) according to manufacturer-supplied protocols.

[1] = tested on: RBCs of healthy whole blood; assay: RBC deformability (Elongation Index, LORRCA ektacytometry), ex vivo TBHP oxidation of healthy whole blood; format: cell-based, human; conditions: healthy donor 2, single amino acid treatments
Excerpt: Whole blood from healthy African American and/or Hispanic donors was obtained from Research Blood Components, LLC based on the following donor selection criteria: Adult age (between 18 and 50 years), normal BMI (<30), and absence of other confounding clinical conditions. Whole blood from SCD donors were obtained from BioIVT based on the following donor selection criteria: Patients with genotypes HbSS, HbSC, HbS/β^0 and at least 1-2 months gap since last blood transfusion. Whole blood was shipped on ice on the same day as blood draw. Upon receipt, the blood sample was aliquoted and stored in the refrigerator until used for studies.
RBC deformability measurements were conducted with the Laser Optical Rotational Red Cell Analyzer (LORRCA) from RR Mechatronics in a temperature-controlled environment (37° C.). Briefly, an even layer of RBCs suspended in polyvinylpyrrolidone (PVP) is subjected to shear stress gradient (0.3 to 30 Pa) through two concentric cylinders and the resulting changes in RBC shape or deformability are measured by a laser beam diffraction pattern. The captured images of RBC shape in response to increasing shear stress are then analyzed by the LORRCA program to calculate Elongation Index (EI).
Healthy RBCs have higher deformability ≥0.5 EI and SCD RBCs have lower deformability or EI values as studied by LORRCA ektacytometry in the field. […] The induced hemolysis model in this disclosure involves use of tert-butyl hydroperoxide (TBHP) to lower EI of RBCs.
The ex vivo hemolysis study disclosed here involves overnight treatment of whole blood with vehicle as a control and specific amino acids followed by rapid oxidation (5 min) with TBHP. Method for oxidation of whole blood with tert-butyl hydroperoxide has been used in prior literature (Diederich L, et al, Front Physiol. 2018 May 11; 9:332). RBC deformability or shape changes are then measured with LORRCA ektacytometry.
Whole blood aliquots stored in the fridge were brought up to room temperature while gently shaking on a rocker at low speed for an hour to ensure gradual and uniform suspension of red blood cells prior to deformability measurements. Vehicle control used in the study was 1× Dulbecco's […]) and amino acids disclosed herein were added (at either final 10× or 2.5 mM concentration as indicated) to corresponding vehicle and amino acid treatment conditions. The samples were then incubated overnight at 37° C. The next day, 25 μl of whole blood was taken from each treatment condition and added to 5 mL Elon ISO viscous solution from RR Mechatronics. The sample was inverted 15-20 times to ensure proper mixing of the treated RBCs with the Elon ISO solution followed by loading the sample on LORRCA and capturing RBC deformability or shape measurements over the applied shear gradient. The remaining whole blood treatments were returned to incubator (37° C.) until deformability measurements were completed for all treatments. To the remaining whole blood treatment samples, TBHP solution (5.0-6.0 M in Decane, Sigma) was added at 2.5 mM final concentration from a 100 mM freshly prepared stock and incubated for further 5 min at 37° C. 25 μl of this TBHP-treated sample was immediately removed at the end of the 5 min incubation and added to the Elon ISO solution for RBC deformability measurement after oxidation. Included in the Tables 13-15 are EI measurements at ½ EImax shear stress 1.69 Pa and EImax shear stress 30 Pa from these studies and FIG. 1 captures EI measurements for all shear stress points for the indicated treatment conditions.

IL-6 [2] = assay: LPS-induced IL-6 secretion in primary human monocyte-derived macrophages (ELISA); format: cell-based; conditions: for Donor 1 IL-6 Measurements Mean / Donor 2 IL-6 Measurements Mean / Donor 3 IL-6 Measurements Mean: LPS, baseline subtracted
Protocol: as §1

HLMVEC = assay: META-rank score, composite of VCAM1, ICAM1 and IL6 in the HLMVEC model; format: cell-based, human; conditions: HLMVEC + TNF-α; lower score = more optimal; 20x HMDB / 5 mM
Protocol: The ability of single amino acids and combinations to simultaneously impact these phenotypes was measured by a META-rank score (Tables 17 and 18). META-rank score is a composite measure that considers the optimal impact on all 3 phenotypes (e.g. decrease VCAM1, ICAM1, and IL6) in the HLMVEC model.

IL-6 [3] = assay: Secreted IL-6 in HLMVEC treated with TNF-α (FirePlex); format: cell-based, human; conditions: HLMVEC + 0.5 ng/mL TNF-α, 24 h; amino acids 20x HMDB, Nac/Cit/Car 5 mM as bracketed
Protocol: (§2) Primary Human Lung Microvascular Endothelial Cells (HLMVEC; Lonza) were seeded at 6,000 cells per well in Endothelial Cell Growth Basal Medium-2 (Lonza) supplemented with Fetal Bovine Serum (FBS; Lonza), human EGF (Lonza), human VEGF (Lonza), R3-Insulin-like Growth Factor-1 (Lonza), ascorbic acid (Lonza), hydrocortisone (Lonza), human FGF-beta (Lonza), and gentamicin/amphotericin-b (Lonza) in a 96-well plate (Thermo Fisher). The cells were incubated for 45 minutes at room temperature, then incubated overnight at 37° C./5% CO2.
(§3) Following overnight incubation, cell were washed once with 150 μL of Dulbecco's phosphate buffered saline (DPBS; Gibco), and then treated with Endothelial Basal Medium MCB-131 (amino acid, glucose, sodium pyruvate, and phenol red free; US Biologicals) containing a defined custom amino acid concentration based on physiological concentrations in blood of patients with SCD (thus recapitulating observed metabolic imbalances such as the depletion of certain essential amino acids including arginine and aspartate and enrichment of certain non-essential amino acids including glutamate and asparagine), dialyzed FBS (Hyclone), human EGF (Lonza), human VEGF (Lonza), R3-Insulin-like Growth Factor-1 (Lonza), ascorbic acid (Lonza), hydrocortisone (Lonza), human FGF-beta (Lonza), and gentamicin/amphotericin-b (Lonza), glucose, 10 mM HEPES, sodium pyruvate, and sodium bicarbonate supplemented with one of the following: • a. PBS (vehicle control), • b. 0.5 ng/mL Tumor Necrosis Factor alpha (TNFα) and PBS, or; • c. 0.5 ng/mL TNF-α and amino acid treatments at 20× mean physiological concentrations in plasma based on values published in the Human Metabolome Database (HMDB) in PBS.
Supernatants were analyzed for IL-6 concentrations using a Human Cytokines FirePlex-HT Panel 1 kit (abcam) according to the manufacturer-supplied instructions. Particles were imaged on a high content imager (Molecular Devices), and results were interpolated from a standard curve with FirePlex Analysis Workbench Software (abcam) according manufacturer's recommendations.

VCAM-1 = VCAM-1 cell integrated intensity in HLMVEC treated with TNF-α (immunofluorescence); format: cell-based, human
Protocol: as §2, §3
(§4) After 24 hours of treatment, cells were washed once with 150 μL of DPBS (Gibco), then fixed with 4% paraformaldehyde. Following fixation, cells were stained with anti-ICAM-1 [MEM-111] (mouse IgG2a anti-human; abcam) and anti-VCAM1 [1.4C3] (mouse IgG1, K anti-human; abcam) primary antibodies at 1000×, and 100× dilutions respectively. Cells were then stained with Goat anti-Mouse IgG2a Cross-Adsorbed Secondary Antibody, Alexa Fluor 594 (Invitrogen) and Goat anti-Mouse IgG1 Cross-Adsorbed Secondary Antibody, Alexa Fluor 647 (Invitrogen) secondary antibodies. Nuclei were stained with Hoechst 3342 (Life Technologies).
(§5) Antibody binding was detected by fluorescence microscopy using a high content imager (Molecular Devices). Images were analyzed using MetaXpress 6 software to determine the integrated intensity per cell for each wavelength corresponding to ICAM-1 or VCAM-1.

ICAM-1 = ICAM-1 cell integrated intensity in HLMVEC treated with TNF-α (immunofluorescence); format: cell-based, human; conditions: HLMVEC + 0.5 ng/mL TNF-α, 24 h; amino acids 20x HMDB, Nac/Cit/Car 5 mM as bracketed
Protocol: as §2, §3, §4, §5

[4] = tested on: whole blood from healthy controls; assay: ROS (DCF fluorescence) in whole blood of healthy control donors, H2O2-induced; format: cell-based, human
Protocol: (§6) Whole blood samples were appropriately diluted in Ca^2+- and Mg^2+-free Dulbecco's phosphate buffered saline (DPBS, Life Technologies) and the concentration of erythrocytes (RBC/mL) was measured on a Cellometer K2 Fluorescent Viability Cell Counter according to the manufacturer's RBC/AOPI protocol (Nexcelom Biosciences).
(§7) Cells were then diluted to 1×10^6 RBC/mL into either prewarmed 37° C. […] 2′-7′-dichlorofluorescin diacetate (DCF, Millipore Sigma), 20 mM in dimethyl sulfoxide (DMSO, Fisher) were added to a working concentration of 100 μM. Cells were incubated with dye for 15 minutes at 37° C., 5% CO2 in a tissue culture incubator, washed once, and resuspended in the 0.9 volumes of the same prewarmed 37° C. buffer with 5 minute spins at 500×g, accel/decal=5 in a swing arm centrifuge (Beckman Coulter). […] Where possible due to solubility constrains, pH-7.4-adjusted stock solutions of amino acids were used. Wells were mixed by pipetting and plates incubated at 37° C., 5% CO2 in a tissue culture incubator for 30 minutes. Optionally, 40 mM H2O2 (Millipore Sigma) freshly prepared in the same buffer was added to bring the concentration to 2 mM, wells mixed by pipetting, and plates were incubated an additional 30, 60, 120, or 240 minutes before fluorescence measurement of ROS signal on a Synergy H4 (BioTek) microplate reader with excitation=488 nm and emission=530 nm, and gain either set to autogain, 75, or 100.

[5] = tested on: sickle cell disease patient blood; assay: ROS (DCF fluorescence) in sickle cell disease patient whole blood; format: cell-based, human
Protocol: as §6, §7

[6] = Donor 1, Conc. 109 μM (baseline)

For `N=C(N)NCCC[C@H](N)C(=O)O` [Arginine], the “TNF-α Measurements Mean” value (TNFα; [6]) was 0, the “TNF-α Measurements Mean” value (TNFα; Donor 1, Conc. 1088 μM) was −24.33 and the “TNF-α Measurements Mean” value (TNFα; Donor 1, Conc. 2720 μM) was 5.12. The “TNF-α Measurements Mean” value (TNFα; Donor 1, Conc. 5440 μM) was 62.06, the “TNF-α Measurements Mean” value (TNFα; Donor 2, Conc. 109 μM (baseline)) was 1.42E−14 and the “TNF-α Measurements Mean” value (TNFα; Donor 2, Conc. 1088 μM) was −12.7222. For the same molecule, the “TNF-α Measurements Mean” value (TNFα; Donor 2, Conc. 2720 μM) was −3.763, the “TNF-α Measurements Mean” value (TNFα; Donor 2, Conc. 5440 μM) was −0.5738 and the “TNF-α Measurements Mean” value (TNFα; Donor 3, Conc. 109 μM (baseline)) was 3.55E−15. The “TNF-α Measurements Mean” value (TNFα; Donor 3, Conc. 1088 μM) was 3.131, the “TNF-α Measurements Mean” value (TNFα; Donor 3, Conc. 2720 μM) was −0.9669 and the “TNF-α Measurements Mean” value (TNFα; Donor 3, Conc. 5440 μM) was −1.767. For the same molecule, the “EI over vehicle control, both ½ EImax and EImax” value [1] was “higher than the vehicle”, the “Donor 1 IL-6 Measurements Mean” value (IL-6 [2]; [6]) was 0 and the “Donor 1 IL-6 Measurements Mean” value (IL-6 [2]; Donor 1, Conc. 1088 μM) was −181.36. The “Donor 1 IL-6 Measurements Mean” value (IL-6 [2]; Donor 1, Conc. 2720 μM) was −186.57, the “Donor 1 IL-6 Measurements Mean” value (IL-6 [2]; Donor 1, Conc. 5440 μM) was 357.4394 and the “effect on LPS-induced IL-6 secretion” value (IL-6 [2]; Donor 1, Two Way ANOVA Dunnett) was “increased”. For the same molecule, the “Donor 2 IL-6 Measurements Mean” value (IL-6 [2]; Conc. 109 μM (baseline)) was 2.37E−15, the “Donor 2 IL-6 Measurements Mean” value (IL-6 [2]; Conc. 1088 μM) was −9.701 and the “Donor 2 IL-6 Measurements Mean” value (IL-6 [2]; Conc. 2720 μM) was −13.6102. For the same molecule, the “Donor 2 IL-6 Measurements Mean” value (IL-6 [2]; Conc. 5440 μM) was −12.4164, the “Donor 3 IL-6 Measurements Mean” value (IL-6 [2]; Conc. 109 μM (baseline)) was 0 and the “Donor 3 IL-6 Measurements Mean” value (IL-6 [2]; Conc. 1088 μM) was 31.5786. The “Donor 3 IL-6 Measurements Mean” value (IL-6 [2]; Conc. 2720 μM) was −7.503 and the “Donor 3 IL-6 Measurements Mean” value (IL-6 [2]; Conc. 5440 μM) was −6.81.
`NC(=O)NCCC[C@H](N)C(=O)O` [Cit, citrulline] was tested, and the “Meta-Rank (Table 18)” value (HLMVEC) was 8, the “Metarank (Table 17)” value (HLMVEC) was 16 and the “Secreted IL6 Median” value (IL-6 [3]) was −0.270. For the same molecule, the “VCAM-1 expression in HLMVEC” value (VCAM-1; 0.5 ng/mL TNF-α, amino acids at 20× HMDB, 24 hours) was “moderate effect”, the “VCAM-1 Cell Integrated Intensity Median” value (VCAM-1; HLMVEC + 0.5 ng/mL TNF-α, 24 h, amino acids 20x HMDB, Nac/Cit/Car 5 mM as bracketed) was −0.157 and the “EI over vehicle control, both ½ EImax and EImax” value [1] was “higher than the vehicle”. The “ICAM-1 Cell Integrated Intensity Median” value (ICAM-1) was −0.118.
For `N[C@@H](CS)C(=O)O` [cysteine], the “ROS measured in whole blood” value ([4]; healthy control donors treated with H2O2, dose-responsive) was “reduced” and the “ROS measured in whole blood” value ([5]; both treated with H2O2 and untreated, in DPBS) was “reduced”.
In the case of `N[C@@H](Cc1c[nH]c2ccccc12)C(=O)O` [tryptophan], the “ROS signal” value ([4]; healthy donor blood, 10×) is reported as “increased” and the “ROS signal” value ([5]; 10×) is reported as “increased”.
